Results reported in article PMC4503980 (Scientific Reports, 2015).

Columns and labels:
Type in all cases: binding
[1] = molecular target: T1, nNOS-PDZ/PSD-95-PDZ1-2 interaction (Homo sapiens, UniProt P29475); assay: 'indirect' FP assay, Cnskr2 probe / PSD-95-PDZ1-2 / nNOS-PDZ
T1 construct: nNOS-PDZ (12–130, human); PDZ1-2 (61-249); made in house; host or cells: E. coli
From the text: First we tested a series of 23 fluorescent-labelled C-terminal peptide ligands (Supplementary Table S1) derived from PDZ-interacting proteins in order to find a probe with good activity towards the PSD-95 PDZ domains and no or little activity against nNOS-PDZ (Supplementary Fig. S1). The Cnskr2 probe fulfilled these selectivity criteria and was used to generate saturation curves with PDZ2 and PDZ1-2 of PSD-95 (Fig. 4a). […] Next, fixed concentrations of TAMRA-Cnskr2, PSD-95-PDZ2/1-2, and nNOS-PDZ were applied, corresponding to the conditions at IC50 of the nNOS-PDZ inhibition curve (Fig. 4b) where sensitivity of the assay is greatest. […] Here, we used the Sapk3-peptide as it has the desired high affinity to α1-Syntrophin-PDZ and low affinity to nNOS-PDZ (Supplementary Fig. S1).
The minor increases in mP at high concentrations, 260-2900 μM, were due to fluorescence artefacts.
Similar, this assay was established with Syntrophin-PDZ and Sapk3 as probe (Fig. 4d).
In all cases, the DMSO effect on the assay was tested and found negligible.

[2] = molecular target: PSD-95-PDZ2 (Homo sapiens, UniProt P78352); assay: ITC titration into PSD-95-PDZ2; set-up: PSD-95-PDZ2 (157–249, human); made in house; details: 100 μM protein in cell, 750 μM compound in syringe, 1% DMSO, pH 6.3, 25 °C
PSD-95-PDZ2, sequence (P78352 157-249): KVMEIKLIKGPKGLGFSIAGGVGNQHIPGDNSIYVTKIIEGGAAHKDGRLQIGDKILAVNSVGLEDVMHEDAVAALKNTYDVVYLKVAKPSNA
From the text: (§1) Unlike the FP experiments above, which rely on inhibition of interaction partners, the ITC method is a direct measure of binding, regardless of where it takes place on the protein.
(§2) Figure 5 ITC curves. Plots showing titrations into PDZ domains fitted to a one-site model.
(§3) For isothermal titration calorimetry (ITC) and NMR, PSD-95-PDZ2 (157–249, human) was expressed and purified as described previously. The sequence for the extended Mus musculus nNOS-PDZ (residues 12–134, Uniprot Q9JJ30) was sub-cloned into a pETM11 vector using cloning sites Nco1 and Kpn1, and the protein was expressed and purified following a similar protocol to that used for the production of PSD-95-PDZ2.
(§4) All ITC experiments were carried out at 25 °C on an iTC200 Microcalorimeter (GE Healthcare) with a 200 μL cell capacity and 40 μL syringe volume. The buffer used for all solutions was 20 mM phosphate buffer at pH 6.3; each experiment consisted of an initial injection of 0.5 μL, followed by fifteen 2.39 μL injections before a final injection of 1.89 μL. […] In both cases no heat exchange was detected, confirming that there was appropriate match of buffer conditions with no indication of dilution effects. […] For the nNOS-PDZ/PSD-95-PDZ2 interaction, 100 μM PDZ2 in the cell was titrated with 750 μM nNOS-PDZ. […] All data was analysed using the Origin®7 software programme.

[3] = molecular target: T2, extended nNOS-PDZ (Mus musculus, UniProt Q9Z0J4); assay: ITC titration into extended nNOS-PDZ; details: 100 μM protein in cell, 750 μM compound in syringe, 1% DMSO, pH 6.3, 25 °C
T2 construct: nNOS-PDZ (residues 12–134, Uniprot Q9JJ30); made in house
T2 sequence (Q9Z0J4 12-134): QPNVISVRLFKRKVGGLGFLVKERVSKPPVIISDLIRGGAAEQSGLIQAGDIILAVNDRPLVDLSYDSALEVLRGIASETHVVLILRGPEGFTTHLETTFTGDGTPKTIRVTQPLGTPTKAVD
From the text: as §1, §2, §3, §4

T1 sequence (P29475 12-130): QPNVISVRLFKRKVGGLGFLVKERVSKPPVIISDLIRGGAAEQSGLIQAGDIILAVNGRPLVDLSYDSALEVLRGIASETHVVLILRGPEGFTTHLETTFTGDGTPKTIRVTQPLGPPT

activity in indirect FP assay (nNOS-PDZ/PSD-95-PDZ1-2) ([1]; up to 500–600 μM, Cy5-Cnskr2 5 nM / PSD-95-PDZ1-2 1 μM / nNOS-PDZ 5 μM)	rise in FP signal (inhibition of nNOS-PDZ/PSD-95-PDZ1-2) ([1]; ZL006 0-2900 μM, TAMRA-Cnskr2 5 nM / PSD-95-PDZ1-2 1 μM / nNOS-PDZ 2.5 μM)	Compound	binding to PSD-95-PDZ2 by ITC [2]	binding to extended nNOS-PDZ by ITC [3]
no activity	–	Oc1c(Cl)cc(Cl)cc1CNc1ccc2[nH]nnc2c1 [IC87201, 2-((1H-Benzo[d][1–3]triazol-5-ylamino)methyl)-4-6-dichlorophenol]	does not bind	does not bind
–	no rise in FP signal	O=C(O)c1ccc(NCc2cc(Cl)cc(Cl)c2O)cc1O [ZL006, 4-((3,5-Dichloro-2-hydroxybenzyl)amino)-2-hydroxybenzoic acid]	binding was too weak to produce a binding isotherm	binding was too weak to produce a binding isotherm
